Earlier results as cited in patent US20260158012A1 (Beijing Creatron Institute Of Pharmaceutical Research Co. …, priority 2022, published 2026).
Where two headings read alike, the source gives them in different places.

Columns and labels:
[1] = for Solubility (in words): aqueous media
[2] = 7 consecutive days
[3] = not given; remark: listed apart in the source
[4] = dosage increased from 400 mg each time to 600 mg each time
[5] = system: advanced hepatocellular carcinoma
[6] = trough concentration <1.40 μg/mL
[7] = trough concentration ≥3.45 μg/mL

In the case of CNC(=O)c1cc(Oc2ccc(NC(=O)Nc3ccc(Cl)c(C(F)(F)F)c3)cc2)ccn1 [Sorafenib, 4-[4-[[4-chloro-3-(trifluoromethyl)phenyl]carbamoylamino]phenoxy]-N-methylpyridine-2-carboxamide], the Solubility [1] is given as less than 10 µg/mL, the “oil-water partition coefficient Log P” value [1] is given as “about 5.6” and the “Solubility (in words)” value [1] is given as “Practically insoluble in aqueous”. For the same compound, the “concentration of sorafenib molecules in the solution” value (pH 1.0) was 3.4 µg/mL, the “concentration of sorafenib molecules in the solution” value (pH 4.5) was 0.13 µg/mL and the “coefficient of variation of AUC0-12 h at steady state” value ([2]; 200 mg (Bid) oral) was 16.9%. The “coefficient of variation of Cmax at steady state” value ([2]; 200 mg (Bid) oral) was 8.6%, the “coefficient of variation of AUC0-12 h at steady state” value ([2]; 400 mg (Bid) oral) was 90.5% and the “coefficient of variation of Cmax at steady state” value ([2]; 400 mg (Bid) oral) was 106.7%. The “steady state concentration in the blood (plasma)” value ([3]; after 2 weeks of treatment, renal cell carcinoma patients) was 881-12,526 ng/mL, the “blood drug concentration of patients who experienced serious adverse reactions” value ([3]; human, in vivo) was “exceeded 10,000 ng/ml” and the incidence of fatigue ([3]; renal cell carcinoma patients) was 55.32%. The “incidence of hand-foot syndrome” value ([3]; renal cell carcinoma patients) was 68.99%, the “increase in drug exposure” value [4] was 13% and the “overall survival (OS)” value ([5]; 1.40 μg/mL≤Ctrough<3.45 μg/mL) was 17.8 months. The “time to treatment failure (TTF)” value ([5]; 1.40 μg/mL≤Ctrough<3.45 μg/mL) was 13.1 months, the “overall survival (OS)” value [5, 6] was 5.3 months and the “progression-free survival (PFS)” value [5, 6] was 4.7 months. For the same compound, the “time to treatment failure (TTF)” value [5, 6] was 4.7 months, the “incidence of serious adverse reactions above grade 3” value ([5]; trough concentration below 3.45 μg/ml) was 26.7% and the “incidence of serious adverse reactions above grade 3” value ([5]; trough concentration exceeded 3.45 μg/ml) was 72.7%. The “overall survival (OS)” value [5, 7] was 9.5 months, the “progression-free survival (PFS)” value [5, 7] was 8.9 months and the “time to treatment failure (TTF)” value [5, 7] was 2.4 months.

In the case of [2H]C([2H])([2H])NC(=O)c1cc(Oc2ccc(NC(=O)Nc3ccc(Cl)c(C(F)(F)F)c3)cc2)ccn1 [Donafenib, 4-[4-[[4-chloro-3-(trifluoromethyl)phenyl]carbamoylamino]phenoxy]-N-(trideuteriomethyl)pyridine-2-carboxamide], the Solubility [1] is given as less than 10 µg/mL and the “Solubility (in words)” value [1] is given as “Practically insoluble in aqueous”.
